Results taken from patent US20060100431A1, “Biologically active compounds” (Amura Therapeutics Limited, priority 2002, published 2006).

How the values were obtained:
Format in all cases: biochemical
[1] = molecular target: T1, CPB2.8ΔCTE (Leishmania mexicana, UniProt P36400); experiment: Leishmania mexicana cysteine protease B (CPB) peptidase activity assay (Ki); details: Ki, inhibitors of Leismania mexicana CPB protease
T1 construct: Wild-type recombinant CPB without the C-terminal extention (i.e. CPB2.8ΔCTE); Dr. Jeremy Mottram (Wellcome Centre for Molecular Parasitology, University of Glasgow)
T1 sequence (P36400 126-343, stated change not applied): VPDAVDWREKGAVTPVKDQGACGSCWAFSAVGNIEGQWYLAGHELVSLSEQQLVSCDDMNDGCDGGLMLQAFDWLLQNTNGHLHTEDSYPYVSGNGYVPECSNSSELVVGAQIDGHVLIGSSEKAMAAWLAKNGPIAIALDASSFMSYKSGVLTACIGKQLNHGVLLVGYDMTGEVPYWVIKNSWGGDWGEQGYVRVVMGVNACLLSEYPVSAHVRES
Outline: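 Apparent Ki was derived by regression of activity against inhibitor concentration, assuming pure-competitive reversible binding. Reaction: 0.25 nM CPB lacking the C-terminal extension, pH 5.5 acetate buffer (1 mM EDTA, 200 mM NaCl, 10 mM DTT), 25 °C, followed by continuous substrate fluorescence.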

[2] = molecular target: T2, human cathepsin L (Homo sapiens, UniProt P07711); experiment: Cathepsin L peptidase activity assay (Ki); details: read-out: Ki, inhibitors of cathepsin L
T2 construct: purchased CN Biosciences
T2 sequence (P07711 114-333): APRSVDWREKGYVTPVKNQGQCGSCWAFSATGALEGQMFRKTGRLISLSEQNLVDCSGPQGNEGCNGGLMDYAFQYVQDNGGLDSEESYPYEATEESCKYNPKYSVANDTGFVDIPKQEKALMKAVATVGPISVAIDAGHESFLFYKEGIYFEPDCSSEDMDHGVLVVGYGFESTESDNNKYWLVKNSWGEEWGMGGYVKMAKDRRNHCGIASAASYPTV
Outline: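 Run at 25±1° C with DMSO under 1%: buffer was 10 mM BTP pH 6.5 containing 1 mM EDTA, 1 mM CaCl2 and 5 mM 2-mercaptoethanol. Enzyme (1 nM cathepsin L) was added last to start hydrolysis of Ac-Phe-Arg-AMC held at KM^app (~20 μM), followed kinetically by fluorescence at 365/450 nm.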

[3] = molecular target: T3, Bovine cathepsin S (Bos taurus, UniProt P25326); experiment: Cathepsin S peptidase activity assay, bovine enzyme (Ki); details: species of cathepsin S not given; read-out: Ki, inhibitors of cathepsin S
T3 construct: purchased CN Biosciences
T3 sequence (P25326 115-331): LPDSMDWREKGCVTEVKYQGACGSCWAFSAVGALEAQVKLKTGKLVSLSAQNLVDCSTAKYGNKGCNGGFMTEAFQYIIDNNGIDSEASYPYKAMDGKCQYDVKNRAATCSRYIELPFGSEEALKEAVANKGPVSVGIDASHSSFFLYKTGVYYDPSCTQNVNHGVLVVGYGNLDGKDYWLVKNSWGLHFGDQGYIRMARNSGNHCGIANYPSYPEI
Procedure: Unless otherwise stated, all general chemicals and biochemicals were purchased from either the Sigma Chemical Company, Poole, Dorset, U.K or from Fisher Scientific UK, Loughborough, Leicestershire, U.K. Absorbance assays were carried out in flat-bottomed 96-well plates (Spectra; Greiner Bio-One Ltd., Stonehouse, Gloucestershire, U.K.) using a SpectraMax PLUS384 plate reader (Molecular Devices, Crawley, U.K.). Fluorescence high throughput assays were carried out in either 384-well microtitre plates (Corning Costar 3705 plates, Fisher Scientific) or 96-well ‘U’ bottomed Microfluor W1 microtitre plates (Thermo Labsystems, Ashford, Middlesex, U.K.). Fluorescence assays were monitored using a SpectraMax Gemini fluorescence plate reader (Molecular Devices). For substrates employing either a 7-amino-4-methylcoumarin (AMC) or a 7-amino-4-trifluoromethylcoumarin (AFC) fluorophore, assays were monitored at an excitation wavelength of 365 nm and an emission wavelength of 450 nm and the fluorescence plate reader calibrated with AMC. For substrates employing a 3-amino-benzoyl (Abz) fluorophore, assays were monitored at an excitation wavelength of 310 nm and an emission wavelength of 445 nm; the fluorescence plate reader calibrated with 3-amino-benzamide (Fluka). Unless otherwise indicated, all the peptidase substrates were purchased from Bachem UK, St Helens, Merseyside, UK. Substrates utilizing fluorescence resonance energy transfer methodology (i.e. FRET-based substrates) were synthesized at Incenta Limited using published methods (Atherton & Sheppard, Solid Phase Peptide Synthesis, IRL Press, Oxford, U.K, 1989) and employed Abz (2-aminobenzoyl) as the fluorescence donor and 3-nitro-tyrosine [Tyr(NO2)] as the fluorescence quencher (Meldal, M. and Breddam, K., Anal. Biochem, 195, 141-147, 1991). Hydroxyethylpiperazine ethanesulfonate (HEPES), tris-hydroxylmethyl aminomethane (tris) base, bis-tris-propane and all the biological detergents (e.g. CHAPS, zwittergents, etc.) were purchased from CN Biosciences UK, Beeston, Nottinghamshire, U.K. Glycerol was purchased from Amersham Pharmacia Biotech, Little Chalfont, Buckinghamshire, U.K. Stock solutions of substrate or inhibitor were made up to 10 mM in 100% dimethylsulfoxide (DMSO) (Rathburns, Glasgow, U.K.) and diluted as appropriately required. In all cases the DMSO concentration in the assays was maintained at less than 1% (vol./vol.).
Assay protocols were based on literature precedent (Table 4; Barrett, A. J., Rawlings, N. D. and Woessner, J. F., 1998, Handbook of Proteolytic Enzymes, Academic Press, London and references therein) and modified as required to suit local assay protocols. Enzyme was added as required to initiate the reaction and the activity, as judged by the change in fluorescence upon conversion of substrate to product, was monitored over time. All assays were carried out at 25±1° C.
Bovine cathepsin S, human cathepsin L, human cathepsin H and human cathepsin B were obtained from CN Biosciences. Recombinant human cathepsin S, human cathepsin K and human cathepsin X were obtained from Dr. Boris Turk (Josef Stefan Institute, Ljubljana, Slovenia). Unless otherwise stated, all peptidase activity assays were carried out in 10 mM bis-tris-propane (BTP), pH 6.5 containing 1 mM EDTA, 5 mM 2-mercaptoethanol and 1 mM CaCl2. Human cathepsin H activity assays were carried out in 10 mM BTP pH 6.5, 142 mM NaCl2, 1 mM CaCl2, 1 mM EDTA, 1 mM DTT, 0.035 mM Zwittergent 3-16. Human cathepsin K assays were carried out in 100 mM sodium acetate; pH 5.5 containing 20 mM L-cysteine and 1 mM EDTA (Bossard, M. J., et. al., J. Biol. Chem., 21, 12517-12524, 1996). Human cathepsin X assays were carried out in 100 mM sodium acetate; pH 5.5 containing 20 mM L-cysteine; 0.05% (w/v) Brij 35 and 1 mM EDTA (Santamaria, I., et. al., J. Biol. Chem., 273, 16816-16823, 1998; Klemencic, J, et al., Eur. J. Biochem., 267, 5404-5412, 2000).

[4] = molecular target: Wild-type cruzipain (Trypanosoma cruzi, UniProt P25779); experiment: Trypanosoma cruzi cruzipain peptidase activity assay (Ki); details: read-out: Ki, inhibitors of cruzain and cruzipains
Wild-type cruzipain, sequence (P25779 whole entry): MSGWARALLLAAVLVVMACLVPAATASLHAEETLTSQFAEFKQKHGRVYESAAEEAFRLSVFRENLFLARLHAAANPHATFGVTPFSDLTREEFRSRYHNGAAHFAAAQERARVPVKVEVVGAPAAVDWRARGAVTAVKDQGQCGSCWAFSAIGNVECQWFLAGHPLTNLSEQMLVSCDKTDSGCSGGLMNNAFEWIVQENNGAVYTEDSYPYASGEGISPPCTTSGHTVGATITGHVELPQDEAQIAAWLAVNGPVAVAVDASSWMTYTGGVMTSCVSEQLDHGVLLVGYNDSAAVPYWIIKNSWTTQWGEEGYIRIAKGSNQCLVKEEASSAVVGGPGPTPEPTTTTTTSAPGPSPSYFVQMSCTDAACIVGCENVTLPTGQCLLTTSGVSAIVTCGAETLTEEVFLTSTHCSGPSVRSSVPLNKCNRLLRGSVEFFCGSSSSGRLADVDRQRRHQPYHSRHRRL
Outline: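 Native cruzipain from T. cruzi Dm28 epimastigotes, 2.5 nM, in 100 mM sodium phosphate pH 6.75 with 1 mM EDTA and 10 mM L-cysteine, 25 °C, DMSO <1%. Rates taken from continuous fluorogenic substrate read; Ki by regression assuming reversible pure-competitive inhibition.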

Measured: Ki

Cc1c(C(=O)N[C@@H](CC(C)C)C(=O)N2CC[C@@H]3[C@H]2C(=O)CN3C(=O)c2cccnc2)oc2ccccc12 [Example 17, (3aR,6aS)-3-Methyl-benzofuran-2-carboxylic acid {(1S)-3-methyl-1-[6-oxo-4-(pyridine-3-carbonyl)-hexahydro-pyrrolo[3,2-b]pyrrole-1-carbonyl]-butyl}-amide]
< 5 µM: all assays above

CC(C)C[C@H](NC(=O)OCc1ccccc1)C(=O)N1CC(=O)[C@@H]2[C@H]1CCN2C(=O)[C@H](CC(C)C)NC(=O)c1ccc(N(C)C)cc1 [Example 37, (3aS,6aR)-((1S)-1-{4-[(2S)-2-(4-Dimethylamino-benzoylamino)-4-methyl-pentanoyl]-3-oxo-hexahydro-pyrrolo[3,2-b]pyrrole-1-carbonyl}-3-methyl-butyl)-carbamic acid benzyl ester]
< 5 µM: all assays above

COc1cccc(C(=O)N2CC(=O)[C@@H]3[C@H]2CCN3C(=O)[C@H](CC(C)C)NC(=O)c2ccc(N(C)C)cc2)c1 [Example 65, (3aR,6aS)-4-Dimethylamino-N-{(1S)-1-[4-(3-methoxy-benzoyl)-6-oxo-hexahydro-pyrrolo[3,2-b]pyrrole-1-carbonyl]-3-methyl-butyl}-benzamide]
< 5 µM: all assays above

CC(C)C[C@H](NC(=O)c1ccc(N2CCOCC2)cc1)C(=O)N1CC[C@@H]2[C@H]1C(=O)CN2C(=O)c1ccccc1 [Example 85, (3aR,6aS)-N-[(1S)-1-(4-Benzoyl-6-oxo-hexahydro-pyrrolo[3,2-b]pyrrole-1-carbonyl)-3-methyl-butyl]-4-morpholin-4-yl-benzamide]
< 5 µM: all assays above

CC(C)C[C@H](NC(=O)c1ccc2ncccc2c1)C(=O)N1CC[C@@H]2[C@H]1C(=O)CN2C(=O)c1ccccc1 [Example 86, (3aR,6aS)-Quinoline-6-carboxylic acid [(1S)-1-(4-benzoyl-6-oxo-hexahydro-pyrrolo[3,2-b]pyrrole-1-carbonyl)-3-methyl-butyl]-amide]
< 5 µM: all assays above

CC(C)C[C@H](NC(=O)c1ccc2cc[nH]c2c1)C(=O)N1CC[C@@H]2[C@H]1C(=O)CN2C(=O)c1ccccc1 [Example 88, (3aR,6aS)-1H-Indole-6-carboxylic acid [(1S)-1-(4-benzoyl-6-oxo-hexahydro-pyrrolo[3,2-b]pyrrole-1-carbonyl)-3-methyl-butyl]-amide]
< 5 µM: all assays above

CC(C)C[C@H](NC(=O)c1ccc2[nH]ccc2c1)C(=O)N1CC[C@@H]2[C@H]1C(=O)CN2C(=O)c1ccccc1 [Example 89, (3aR,6aS)-1H-Indole-5-carboxylic acid [(1S)-1-(4-benzoyl-6-oxo-hexahydro-pyrrolo[3,2-b]pyrrole-1-carbonyl)-3-methyl-butyl]-amide]
< 5 µM: all assays above

CC(C)C[C@H](NC(=O)c1cccc(CN)c1)C(=O)N1CC[C@@H]2[C@H]1C(=O)CN2C(=O)c1ccccc1 [Example 92, (3aR,6aS)-3-Aminomethyl-N-[(1S)-1-(4-benzoyl-6-oxo-hexahydro-pyrrolo[3,2-b]pyrrole-1-carbonyl)-3-methyl-butyl]-benzamide]
< 5 µM: all assays above

CC(C)C[C@H](NC(=O)c1ccc(CN)cc1)C(=O)N1CC[C@@H]2[C@H]1C(=O)CN2C(=O)c1ccccc1 [Example 93, (3aR,6aS)-4-Aminomethyl-N-[(1S)-1-(4-benzoyl-6-oxo-hexahydro-pyrrolo[3,2-b]pyrrole-1-carbonyl)-3-methyl-butyl]-benzamide]
< 5 µM: all assays above

CC(C)C[C@H](NC(=O)c1ccc(N(C)C)cc1)C(=O)N1CC[C@@H]2[C@H]1C(=O)CN2C(=O)c1ccc2[nH]ccc2c1 [Example 98, (3aR,6aS)-4-Dimethylamino-N-{(1S)-1-[4-(1H-indole-5-carbonyl)-6-oxo-hexahydro-pyrrolo[3,2-b]pyrrole-1-carbonyl]-3-methyl-butyl}-benzamide]
< 5 µM: all assays above

CC(C)C[C@H](NC(=O)c1ccc(N(C)C)cc1)C(=O)N1CC[C@@H]2[C@H]1C(=O)CN2C(=O)[C@H](C)NC(=O)OCc1ccccc1 [Example 145, (3aS,6aR)-((1S)-2-{4-[(2S)-2-(4-Dimethylamino-benzoylamino)-4-methyl-pentanoyl]-3-oxo-hexahydro-pyrrolo[3,2-b]pyrrole-1-yl}-1-methyl-2-oxo-ethyl)-carbamic acid benzyl ester]
< 5 µM: all assays above

CC(C)C[C@H](NC(=O)c1ccc(N(C)C)cc1)C(=O)N1CC[C@@H]2[C@H]1C(=O)CN2C(=O)[C@@H]1CCCN1C(=O)OCc1ccccc1 [Example 154, (3aS,6aR)-(2S)-2-{4-[(2S)-2-(4-Dimethylamino-benzoylamino)-4-methyl-pentanoyl]-3-oxo-hexahydro-pyrrolo[3,2-b]pyrrole-1-carbonyl}-pyrrolidine-1-carboxylic acid benzyl ester]
< 5 µM: all assays above

CC[C@H](NC(=O)OCc1ccccc1)C(=O)N1CC(=O)[C@@H]2[C@H]1CCN2C(=O)[C@H](CC(C)C)NC(=O)c1ccc(N(C)C)cc1 [Example 159, (3aS,6aR)-((1S)-1-{4-[(2S)-2-(4-Dimethylamino-benzoylamino)-4-methyl-pentanoyl]-3-oxo-hexahydro-pyrrolo[3,2-b]pyrrole-1-carbonyl}-propyl)-carbamic acid benzyl ester]
< 5 µM: all assays above
